Reference: US20250171484A1, “METHOD FOR PRODUCING DISACCHARIDE USING BETA-GLUCOSIDASE AND COFACTOR THEREOF AND COMPOSITION FOR INDUCING ENZYME PRODUCTION OF STRAIN OF GENUS TRICHODERMA COMPRISING PRODUCED DISACCHARIDE” (CJ CheilJedang Corporation, priority 2021, published 2025)

Test system: β-glucosidase (SEQ ID NO: 1)
Assay: Disaccharide production from glucose by beta-glucosidase with added divalent metal ion
Type: biochemical, Trichoderma reesei
Settings: for Concentration (g/L) Cellobiose / Concentration (g/L) Gentiobiose / Concentration (g/L) Isomaltose / Concentration (g/L) Maltose / Concentration (g/L) Sophorose / Concentration (g/L) Trehalose / Concentration (g/L) Total: 1 mM ion, 60° C.; for Concentration (g/L) Total: total equals gentiobiose + sophorose; for Increase/decrease rate (%) Gentiobiose / Increase/decrease rate (%) Sophorose / Increase/decrease rate (%) Total: versus no ion added
Protocol: Glucose powder with a purity of 95% or more (hydrous crystalline glucose, Daejung Chemicals & Metals) was dissolved using steam to prepare 40 kg of a glucose solution with a concentration of 71% w/w. 0.3 kg of β-glucosidase (SEQ ID NO: 1) was added at a concentration of 1,650 U/ml to the prepared glucose solution, allowed to stand at 60° C. for 7 days to 21 days to prepare a composition comprising disaccharides (Treated Glucose Syrup, TGS). 0.3 kg of β-glucosidase (same as in Example 1) was added to the glucose solution of Example 1 at a concentration of 1,650 U/ml, and 1 mM of divalent ions [manganese ion (Mn^2+), magnesium ion (Mg^2+), zinc ion (Zn^2+), and copper ion (Cu^2+) each] was further added thereto, and allowed to stand at 60° C. for 7 days to 21 days to prepare a composition containing disaccharides. In the compositions prepared in Examples 1 and 2, the production concentration (g/L) and increase/decrease rate (%) of the disaccharides, i.e. trehalose, isomaltose, maltose, cellobiose, gentiobiose, and sophorose were measured, and the results are shown in Table 1 and Table 2 below. The production concentration was analyzed using a Bio-LC system (Dionex ICS-3000, Sunnyvale, CA, United States) equipped with an electrochemical detector and a CarboPac PAI column.

For [Cu+2] [Cu^2+, copper ion (Cu^2+)], the “Concentration (g/L) Cellobiose” value (standing period 7 days) was 15.1 g/L, the “Concentration (g/L) Gentiobiose” value (standing period 7 days) was 71.7 g/L and the “Concentration (g/L) Isomaltose” value (standing period 7 days) was 8 g/L. For the same compound, the “Concentration (g/L) Maltose” value (standing period 7 days) was 18.7 g/L, the “Concentration (g/L) Sophorose” value (standing period 7 days) was 13.3 g/L and the “Concentration (g/L) Trehalose” value (standing period 7 days) was 19.4 g/L. For the same compound, the “Concentration (g/L) Total” value (standing period 7 days) was 85 g/L, the “Increase/decrease rate (%) Gentiobiose” value (standing period 7 days) was 22.8% and the “Increase/decrease rate (%) Sophorose” value (standing period 7 days) was 92.2%. For the same compound, the “Increase/decrease rate (%) Total” value (standing period 7 days) was 30.1%, the “Concentration (g/L) Cellobiose” value (standing period 14 days) was 15.2 g/L and the “Concentration (g/L) Gentiobiose” value (standing period 14 days) was 82.1 g/L. For the same compound, the “Concentration (g/L) Isomaltose” value (standing period 14 days) was 10.3 g/L, the “Concentration (g/L) Maltose” value (standing period 14 days) was 15.9 g/L and the “Concentration (g/L) Sophorose” value (standing period 14 days) was 17 g/L. The “Concentration (g/L) Trehalose” value (standing period 14 days) was 12.6 g/L, the “Concentration (g/L) Total” value (standing period 14 days) was 99.1 g/L and the “Increase/decrease rate (%) Gentiobiose” value (standing period 14 days) was 16.3%. For the same compound, the “Increase/decrease rate (%) Sophorose” value (standing period 14 days) was 33.5%, the “Increase/decrease rate (%) Total” value (standing period 14 days) was 18.9% and the “Concentration (g/L) Cellobiose” value (standing period 21 days) was 15.5 g/L. For the same compound, the “Concentration (g/L) Gentiobiose” value (standing period 21 days) was 92.4 g/L, the “Concentration (g/L) Isomaltose” value (standing period 21 days) was 12.4 g/L and the “Concentration (g/L) Maltose” value (standing period 21 days) was 16.8 g/L. For the same compound, the “Concentration (g/L) Sophorose” value (standing period 21 days) was 24.3 g/L, the “Concentration (g/L) Trehalose” value (standing period 21 days) was 13 g/L and the “Concentration (g/L) Total” value (standing period 21 days) was 116.7 g/L. The “Increase/decrease rate (%) Gentiobiose” value (standing period 21 days) was 11.7%, the “Increase/decrease rate (%) Sophorose” value (standing period 21 days) was 53.0% and the “Increase/decrease rate (%) Total” value (standing period 21 days) was 18.4%.
With [Mg+2] [Mg^2+, magnesium ion (Mg^2+)] the “Concentration (g/L) Cellobiose” value (standing period 7 days) was 13.1 g/L, the “Concentration (g/L) Gentiobiose” value (standing period 7 days) was 64.3 g/L and the “Concentration (g/L) Isomaltose” value (standing period 7 days) was 6.7 g/L. For the same compound, the “Concentration (g/L) Maltose” value (standing period 7 days) was 13.7 g/L, the “Concentration (g/L) Sophorose” value (standing period 7 days) was 10.8 g/L and the “Concentration (g/L) Trehalose” value (standing period 7 days) was 21.1 g/L. The “Concentration (g/L) Total” value (standing period 7 days) was 75.1 g/L, the “Increase/decrease rate (%) Gentiobiose” value (standing period 7 days) was 10% and the “Increase/decrease rate (%) Sophorose” value (standing period 7 days) was 56.8%. For the same compound, the “Increase/decrease rate (%) Total” value (standing period 7 days) was 15%, the “Concentration (g/L) Cellobiose” value (standing period 14 days) was 15.6 g/L and the “Concentration (g/L) Gentiobiose” value (standing period 14 days) was 69.4 g/L. For the same compound, the “Concentration (g/L) Isomaltose” value (standing period 14 days) was 10.6 g/L, the “Concentration (g/L) Maltose” value (standing period 14 days) was 14.6 g/L and the “Concentration (g/L) Sophorose” value (standing period 14 days) was 17.4 g/L. For the same compound, the “Concentration (g/L) Trehalose” value (standing period 14 days) was 15.3 g/L, the “Concentration (g/L) Total” value (standing period 14 days) was 86.8 g/L and the “Increase/decrease rate (%) Gentiobiose” value (standing period 14 days) was −1.6%. The “Increase/decrease rate (%) Sophorose” value (standing period 14 days) was 36.5%, the “Increase/decrease rate (%) Total” value (standing period 14 days) was 4.2% and the “Concentration (g/L) Cellobiose” value (standing period 21 days) was 15.4 g/L. For the same compound, the “Concentration (g/L) Gentiobiose” value (standing period 21 days) was 74.6 g/L, the “Concentration (g/L) Isomaltose” value (standing period 21 days) was 13.2 g/L and the “Concentration (g/L) Maltose” value (standing period 21 days) was 15.4 g/L. The “Concentration (g/L) Sophorose” value (standing period 21 days) was 23.1 g/L, the “Concentration (g/L) Trehalose” value (standing period 21 days) was 14.8 g/L and the “Concentration (g/L) Total” value (standing period 21 days) was 97.7 g/L. For the same compound, the “Increase/decrease rate (%) Gentiobiose” value (standing period 21 days) was −9.8%, the “Increase/decrease rate (%) Sophorose” value (standing period 21 days) was 45.3% and the “Increase/decrease rate (%) Total” value (standing period 21 days) was −0.9%.
With [Mn+2] [Mn^2+, manganese ion (Mn^2+)] the “Concentration (g/L) Cellobiose” value (standing period 7 days) was 14.5 g/L, the “Concentration (g/L) Gentiobiose” value (standing period 7 days) was 69.5 g/L and the “Concentration (g/L) Isomaltose” value (standing period 7 days) was 8.6 g/L. The “Concentration (g/L) Maltose” value (standing period 7 days) was 16.8 g/L, the “Concentration (g/L) Sophorose” value (standing period 7 days) was 11.6 g/L and the “Concentration (g/L) Trehalose” value (standing period 7 days) was 21.7 g/L. For the same compound, the “Concentration (g/L) Total” value (standing period 7 days) was 81.1 g/L, the “Increase/decrease rate (%) Gentiobiose” value (standing period 7 days) was 18.9% and the “Increase/decrease rate (%) Sophorose” value (standing period 7 days) was 67.8%. The “Increase/decrease rate (%) Total” value (standing period 7 days) was 24.1%, the “Concentration (g/L) Cellobiose” value (standing period 14 days) was 15.4 g/L and the “Concentration (g/L) Gentiobiose” value (standing period 14 days) was 78 g/L. The “Concentration (g/L) Isomaltose” value (standing period 14 days) was 12.4 g/L, the “Concentration (g/L) Maltose” value (standing period 14 days) was 16.1 g/L and the “Concentration (g/L) Sophorose” value (standing period 14 days) was 16.5 g/L. For the same compound, the “Concentration (g/L) Trehalose” value (standing period 14 days) was 14.6 g/L, the “Concentration (g/L) Total” value (standing period 14 days) was 94.5 g/L and the “Increase/decrease rate (%) Gentiobiose” value (standing period 14 days) was 10.5%. For the same compound, the “Increase/decrease rate (%) Sophorose” value (standing period 14 days) was 29.2%, the “Increase/decrease rate (%) Total” value (standing period 14 days) was 13.4% and the “Concentration (g/L) Cellobiose” value (standing period 21 days) was 15.5 g/L. The “Concentration (g/L) Gentiobiose” value (standing period 21 days) was 86.5 g/L, the “Concentration (g/L) Isomaltose” value (standing period 21 days) was 15.7 g/L and the “Concentration (g/L) Maltose” value (standing period 21 days) was 17.1 g/L. For the same compound, the “Concentration (g/L) Sophorose” value (standing period 21 days) was 23.6 g/L, the “Concentration (g/L) Trehalose” value (standing period 21 days) was 14.1 g/L and the “Concentration (g/L) Total” value (standing period 21 days) was 110.2 g/L. For the same compound, the “Increase/decrease rate (%) Gentiobiose” value (standing period 21 days) was 4.6%, the “Increase/decrease rate (%) Sophorose” value (standing period 21 days) was 48.7% and the “Increase/decrease rate (%) Total” value (standing period 21 days) was 11.7%.
In the case of [Zn+2] [Zn^2+, zinc ion (Zn^2+)], the “Concentration (g/L) Cellobiose” value (standing period 7 days) is reported as 14.8 g/L, the “Concentration (g/L) Gentiobiose” value (standing period 7 days) is reported as 69.9 g/L and the “Concentration (g/L) Isomaltose” value (standing period 7 days) is reported as 7.3 g/L. For the same compound, the “Concentration (g/L) Maltose” value (standing period 7 days) was 15.8 g/L, the “Concentration (g/L) Sophorose” value (standing period 7 days) was 12.6 g/L and the “Concentration (g/L) Trehalose” value (standing period 7 days) was 22.2 g/L. For the same compound, the “Concentration (g/L) Total” value (standing period 7 days) was 82.5 g/L, the “Increase/decrease rate (%) Gentiobiose” value (standing period 7 days) was 19.7% and the “Increase/decrease rate (%) Sophorose” value (standing period 7 days) was 82.8%. The “Increase/decrease rate (%) Total” value (standing period 7 days) was 26.3%, the “Concentration (g/L) Cellobiose” value (standing period 14 days) was 14.9 g/L and the “Concentration (g/L) Gentiobiose” value (standing period 14 days) was 81 g/L. The “Concentration (g/L) Isomaltose” value (standing period 14 days) was 9.8 g/L, the “Concentration (g/L) Maltose” value (standing period 14 days) was 14.3 g/L and the “Concentration (g/L) Sophorose” value (standing period 14 days) was 16.4 g/L. For the same compound, the “Concentration (g/L) Trehalose” value (standing period 14 days) was 14.3 g/L, the “Concentration (g/L) Total” value (standing period 14 days) was 97.3 g/L and the “Increase/decrease rate (%) Gentiobiose” value (standing period 14 days) was 14.7%. The “Increase/decrease rate (%) Sophorose” value (standing period 14 days) was 28.4%, the “Increase/decrease rate (%) Total” value (standing period 14 days) was 16.8% and the “Concentration (g/L) Cellobiose” value (standing period 21 days) was 15 g/L. For the same compound, the “Concentration (g/L) Gentiobiose” value (standing period 21 days) was 92 g/L, the “Concentration (g/L) Isomaltose” value (standing period 21 days) was 12.5 g/L and the “Concentration (g/L) Maltose” value (standing period 21 days) was 15.2 g/L. For the same compound, the “Concentration (g/L) Sophorose” value (standing period 21 days) was 23.4 g/L, the “Concentration (g/L) Trehalose” value (standing period 21 days) was 14.5 g/L and the “Concentration (g/L) Total” value (standing period 21 days) was 115.4 g/L. For the same compound, the “Increase/decrease rate (%) Gentiobiose” value (standing period 21 days) was 11.3%, the “Increase/decrease rate (%) Sophorose” value (standing period 21 days) was 47.1% and the “Increase/decrease rate (%) Total” value (standing period 21 days) was 17%.
